From publication PMC10095550, “Design, Synthesis and Biological Evaluation of 6-(Imidazo[1,2-a]pyridin-6-yl)quinazoline Derivatives as Anticancer Agents via PI3Kα Inhibition” (International Journal of Molecular Sciences, 2023) come the findings set out here.

Usually IC50 stands for the concentration that gives 50% inhibition. Low values mean higher potency, high ones lower potency.

In this assay the target is T1, PI3Kα (Homo sapiens, UniProt P42336).
T1 construct: gene PIK3CA
The assay can be described thus: ADP-Glo Max kinase assay. In kind it is biochemical. For orientation: In ADP-Glo the light output rises with the ADP produced.

T1 sequence (P42336 whole entry): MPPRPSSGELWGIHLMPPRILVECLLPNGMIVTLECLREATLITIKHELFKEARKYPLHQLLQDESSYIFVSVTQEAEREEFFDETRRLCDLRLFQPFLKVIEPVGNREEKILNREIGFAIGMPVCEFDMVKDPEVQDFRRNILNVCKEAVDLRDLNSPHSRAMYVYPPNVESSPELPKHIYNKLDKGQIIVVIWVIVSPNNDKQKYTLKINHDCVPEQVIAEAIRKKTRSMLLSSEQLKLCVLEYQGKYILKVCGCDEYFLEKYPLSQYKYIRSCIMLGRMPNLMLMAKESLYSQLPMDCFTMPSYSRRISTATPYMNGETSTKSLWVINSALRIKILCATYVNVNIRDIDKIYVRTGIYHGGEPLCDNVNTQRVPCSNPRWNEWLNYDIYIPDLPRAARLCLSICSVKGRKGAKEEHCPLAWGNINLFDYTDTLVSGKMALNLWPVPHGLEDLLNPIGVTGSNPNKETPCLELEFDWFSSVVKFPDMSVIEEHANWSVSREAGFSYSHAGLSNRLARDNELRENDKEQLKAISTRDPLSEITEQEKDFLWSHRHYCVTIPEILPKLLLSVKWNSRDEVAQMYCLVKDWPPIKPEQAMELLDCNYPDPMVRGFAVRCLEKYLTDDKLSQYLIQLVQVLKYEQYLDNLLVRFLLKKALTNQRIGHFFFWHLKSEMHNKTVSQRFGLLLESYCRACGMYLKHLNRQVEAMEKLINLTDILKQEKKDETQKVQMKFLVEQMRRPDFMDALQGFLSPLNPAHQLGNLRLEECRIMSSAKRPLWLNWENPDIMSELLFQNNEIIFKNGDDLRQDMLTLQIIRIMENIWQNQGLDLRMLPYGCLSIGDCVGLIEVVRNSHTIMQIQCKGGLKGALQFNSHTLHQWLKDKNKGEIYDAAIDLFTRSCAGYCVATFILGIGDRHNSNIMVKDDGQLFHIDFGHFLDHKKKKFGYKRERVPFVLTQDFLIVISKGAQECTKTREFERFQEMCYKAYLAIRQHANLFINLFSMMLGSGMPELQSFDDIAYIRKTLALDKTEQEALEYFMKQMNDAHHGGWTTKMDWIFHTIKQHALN

Regarding `c1ccc(-c2cn3cc(-c4ccc5ncnc(NCC6CCOCC6)c5c4)ccc3n2)cc1` [13k, 6-(2-phenylimidazo[1,2-a]pyridin-6-yl)-N-((tetrahydro-2H-pyran-4-yl)methyl)quinazolin-4-amine], half-maximal inhibition (IC50) was put at 1.94 ± 0.66 nM.
